In ChEMBL document CHEMBL1158833, “Roquefortine E, a diketopiperazine from an Australian isolate of Gymnoascus reessii” (2005):
≈ marks a conversion by molar mass, not a printed value.

Columns and labels:
[1] = Cytotoxicity against mouse NS1 cells; format: functional
[2] = system: Bacillus subtilis; experiment: Antimicrobial activity against Bacillus subtilis; format: functional

C=CC(C)(C)c1[nH]cnc1/C=C1/NC(=O)[C@@H]2C[C@@]3(C(C)(C)C=C)c4ccccc4N[C@H]3N2C1=O [ROQUEFORTINE E]
LD99 [1]: 24 µg/mL

C=CC(C)(C)[C@@]12C[C@H]3C(=O)N/C(=C/c4c[nH]cn4)C(=O)N3[C@@H]1Nc1ccccc12 [ROQUEFORTINE C]
MIC [2]: 6.3 µg/mL (≈ 16.2 µM) | LD99 [1]: 50 µg/mL
